Tests used:
Format in all cases: functional
Spodoptera littoralis = experiment: Insecticidal activity against third to fourth instar larvae Spodoptera littoralis in broad bean plant assessed as mortality rate at 25 mg/L (reference value: 33.3%)
[1] = test system: Macrosteles quadripunctulatus; experiment: Insecticidal activity against third to fourth-instar nymphs stage Macrosteles quadripunctulatus assessed as mortality rate at 25 mg/L (reference value: 11.4%)
Bemisia tabaci = experiment: Insecticidal activity against Bemisia tabaci (sweet potato whitefly) in cucumber plant assessed as mortality rate at 25 mg/L relative to control

C/C=C(\C)C(=O)O[C@H]1C[C@@H](OC(C)=O)[C@@]2(C(=O)OC)CO[C@H]3[C@@H](O)[C@@](C)([C@]45O[C@@]4(C)[C@@H]4C[C@H]5O[C@@H]5OC=C[C@@]54O)[C@H]4[C@]1(CO[C@]4(O)C(=O)OC)[C@@H]32 [AZADIRACHTIN A]
mortality at 25 µg/mL (Spodoptera littoralis): 83.5%
mortality at 25 µg/mL [1]: 30%
mortality at 25 µg/mL (Bemisia tabaci): 82.8%

C/C=C(\C)C(=O)O[C@H]1C[C@@H](OC(C)=O)[C@@]2(C(=O)OC)CO[C@H]3[C@@H](O)[C@@](C)([C@]45O[C@@]4(C)[C@H]4C[C@@H]5O[C@@H]5OC=C[C@@]54O)[C@H]4[C@]1(CO[C@]4(O)C(=O)OC)[C@@H]32 [AZADIRACTIN]
mortality at 25 µg/mL (Spodoptera littoralis): 100%
mortality at 25 µg/mL [1]: 85.7%
mortality at 25 µg/mL (Bemisia tabaci): 94.1%
